{"source": "patent US9155784B2", "about": "“Anti-TNF-α therapy for the mucopolysaccharidoses and other lysosomal disorders” (Icahn School of Medicine at Mount Sinai, priority 2011, dated 2015)", "type_in_all_cases": "in vivo, rat", "key": {"MPS VI rats [1]": {"system": "MPS VI rats", "experiment": "Accelerating rotarod (locomotor function), MPS VI rats, ERT and combined treatment", "conditions": "10 RPM, maximum time 180 seconds; untreated MPS VI mean 70 seconds", "source_text": "Age-matched 37-week-old normal and untreated MPS VI and treated MPS VI rats were placed on an accelerating Rotarod series 8 (IITC Life Science) for evaluation as described previously (Cotugno et al., “Different Serum Enzyme Levels are Required to Rescue the Various Systemic Features of the Mucopolysaccharidoses,” Hum. Gene Ther. 21:555-69 (2010), which is hereby incorporated by reference in its entirety). Animals were primed on the rod for two consecutive days prior to the actual recording. The rotarod was set at increasing speeds from 10 to 30 rpm over 3 minutes, and an average of the latency to fall off from the rod was recorded. Results were analyzed by one-way analysis of variance (ANOVA) with the variable group."}, "MPS VI rats [2]": {"system": "MPS VI rats", "experiment": "MicroCT analysis of bone micro-architecture (trabecular, cortical, robustness), MPS VI rats", "conditions": "mid-diaphyseal femur, vs untreated; fell short of statistical significance", "description": "Three-dimensional images of the 37-week-old femora from age-matched normal, untreated and treated MPS VI rats were obtained using the eXplore Locus SP PreClinical Specimen microCT system (GE Healthcare; London, Ontario, Canada). Scans were performed at a voxel size of 14.4 μm. The scan protocol consisted of 3600 image acquisitions over a five hour scan (acquisition parameters: 80 kVp, 80 uA, 3 second exposure time [˜690], 0.010″ aluminum beam filter). A calibration phantom containing air, water, and hydroxyapatite (SB3: Gamex RMI, Middleton, Wis., USA) was included in all scans to adjust for the variability in X-ray attenuation inherent to independent scan sessions.\nA representative mid-diaphyseal region of each femoral microCT image was isolated for analysis. […] The analysis region was not restricted by measured size to accommodate variances in bone length. […] The MicroView software was employed to quantify morphological traits.\nThe microCT images were further processed to quantify the tissue mineral density (TMD) of cortical bone within each sample. […] TMD was calculated by converting the gray-scale values of bone voxels from Hounsfield units (HU) to mineral values (mg/cc of HA) through the use of a calibration phantom containing air, water, and HA (Gamex RMI, Middleton, Wis., USA). […]"}, "articular chondrocytes": {"system": "articular chondrocytes", "experiment": "Immunoblot of articular chondrocytes from treated MPS VI rats", "conditions": "western blot, vs untreated MPS VI", "source_text": "Tracheas, femora, and tibias were collected from the control and treated MPS VI rats, and placed in either phosphate buffered saline for the isolation of fibroblast-like synoviocytes (FLS) and articular chondrocytes, or fixed in neutral buffered 10% formalin (Sigma Chemical) for histology, microCT analysis, and immunohistochemistry (see infra). The fixed bones were decalcified in 8% formic acid (Sigma Chemical) for 5 days, paraffin embedded, and sectioned (5 μm) for subsequent staining Primary FLS and articular chondrocyte cultures were established as previously described (Simonaro et al., “Joint and Bone Disease in Mucopolysaccharidosis VI and VII: Identification of New Therapeutic Targets and Biomarkers Using Animal Models,” Pediatr. Res. 57:701-707 (2005); Simonaro et al., “Mechanism of Glycosaminoglycan-Mediated Bone & Joint Disease: Implications for the Mucopolysaccharidoses & Other Connective Tissue Diseases,” Amer. J. Path. 172:112-122 (2008), both of which are hereby incorporated by reference in their entirety), and expression of inflammatory and apoptosis markers were assessed by western blotting.\nArticular chondrocytes from 37-week-old normal, untreated and treated MPS VI rats were collected using sequential enzyme digestion of cartilage, pelleted and lysed for immunoblot analysis as previously described (Simonaro et al., “Mechanism of Glycosaminoglycan-Mediated Bone & Joint Disease: Implications for the Mucopolysaccharidoses & Other Connective Tissue Diseases,” Amer. J. Path. 172:112-122 (2008), which is hereby incorporated by reference in its entirety). The membranes were incubated with rabbit polyclonal anti-collagen type IIA1 (sc-8784-R, Santa Cruz Biotechnology), rabbit polyclonal anti-collagen type X (AB58632, Abcam), rabbit polyclonal anti-ADAMTS5 (sc-28887, Santa Cruz Biotechnology), rabbit polyclonal anti-PARP (sc-7150, Santa Cruz Biotechnology), and rabbit polyclonal anti-GAPDH (sc-25778, Santa Cruz Biotechnology), as a loading control. The bound antibodies were recognized by secondary antibodies conjugated to HRP (NA934V), GE Healthcare). […]"}, "MPS VI rats [3]": {"system": "MPS VI rats", "experiment": "Trachea measurements and gross morphology, MPS VI rats", "description": "Limb and trachea measurements were taken at the end of the study (37 weeks of age). The length of each femur was measured from the microCT images using the Microview software. The greater trochanter was used as the proximal margin of the femur, whereas the extent of the distal condyles was considered the distal margin. Thus, the length of each femur was computed roughly along the vertical axis of the bone. For validation, the physical femora and tibia lengths, as well as the width of the tracheas, was measured with a digital caliper. The mean of the two treatment groups (ERT and combined ERT/CNTO1081) were compared using standard student t test analysis."}}}
{"substance": "recombinant human N-acetylgalactosamine-4-sulfatase [ERT]", "values": [{"measurement": "time on the rotating bar", "setting": "MPS VI rats [1]", "result": 180, "unit": "s"}, {"measurement": "cortical area and relative cortical area", "setting": "MPS VI rats [2]", "result": "greater"}, {"measurement": "ADAMTS5 expression in articular chondrocytes", "setting": "articular chondrocytes", "result": "reduced"}, {"measurement": "PARP (apoptosis marker) expression in articular chondrocytes", "setting": "articular chondrocytes", "result": "only reduced by the combined treatment protocol"}, {"measurement": "collagen X expression in articular chondrocytes", "setting": "articular chondrocytes", "result": "increased"}, {"measurement": "tracheal abnormalities (thickened, collapsed tracheas), gross inspection", "setting": "MPS VI rats [3]; 37 weeks of age", "result": "not altered"}, {"measurement": "trachea cross-sectional area", "setting": "MPS VI rats [3]; 37 weeks, untreated 2.9±0.6, normal 7.5±0.8", "result": "3.6±0.5", "unit": "mm^2"}]}
